Converted amounts (≈) assume the structure as drawn.
What was measured:
Format in all cases: functional
Streptococcus agalactiae = experiment: Antibacterial activity against Streptococcus agalactiae assessed as inhibition of visible bacterial growth incubated for 24 hrs by CLSI based broth microdilution method
Escherichia coli = experiment: Antibacterial activity against Escherichia coli ATCC 25922 assessed as inhibition of visible bacterial growth incubated for 24 hrs by CLSI based broth microdilution method
Enterococcus faecalis = experiment: Antibacterial activity against Enterococcus faecalis assessed as inhibition of visible bacterial growth incubated for 24 hrs by CLSI based broth microdilution method
Mycoplasma = experiment: Antibacterial activity against Mycoplasma F3 assessed as inhibition of visible bacterial growth incubated for 24 hrs by CLSI based broth microdilution method
Staphylococcus aureus [1] = experiment: Antibacterial activity against methicillin-resistant Staphylococcus aureus ATCC 43300 assessed as inhibition of visible bacterial growth incubated for 24 hrs by CLSI based broth microdilution method
Staphylococcus aureus [2] = experiment: Antibacterial activity against Staphylococcus aureus ATCC 25923 assessed as inhibition of visible bacterial growth incubated for 24 hrs by CLSI based broth microdilution method

Row | Structure (SMILES) | MIC (Streptococcus agalactiae) [µg/mL] | MIC (Escherichia coli) [µg/mL] | MIC (Enterococcus faecalis) [µg/mL] | MIC (Mycoplasma) [µg/mL] | MIC (Staphylococcus aureus [1]) [µg/mL] | MIC (Staphylococcus aureus [2]) [µg/mL]
1 | C=C[C@]1(C)C[C@@H](OC(=O)CSc2nc(OC(=O)c3ccccc3Br)cs2)[C@]2(C)[C@H](C)CC[C@]3(CCC(=O)[C@H]32)[C@@H](C)[C@@H]1O | 0.063 (≈ 0.0931 µM) | > 32 | > 32 | 0.5 (≈ 0.739 µM) | 0.5 (≈ 0.739 µM) | 2 (≈ 2.96 µM)
2 | CCC[C@@H]1C[C@@H](C(=O)N[C@@H]([C@H]2O[C@H](SC)[C@H](O)[C@@H](O)[C@H]2O)[C@H](C)Cl)N(C)C1 [CLINDAMYCIN] | > 32 | 32 (≈ 75.3 µM) | 16 (≈ 37.6 µM) | 1 (≈ 2.35 µM) | > 32 | > 32
3 | C=C[C@]1(C)C[C@@H](OC(=O)CSc2nc(OC(=O)c3ccccc3)cs2)[C@]2(C)[C@H](C)CC[C@]3(CCC(=O)[C@H]32)[C@@H](C)[C@@H]1O | 0.063 (≈ 0.105 µM) | > 32 | > 32 | 0.25 (≈ 0.418 µM) | 1 (≈ 1.67 µM) | 0.5 (≈ 0.836 µM)
4 | C=C[C@]1(C)C[C@@H](OC(=O)CSC2=NC(=O)CS2)[C@]2(C)[C@H](C)CC[C@]3(CCC(=O)[C@H]32)[C@@H](C)[C@@H]1O | 0.125 (≈ 0.253 µM) | > 32 | > 32 | 0.5 (≈ 1.01 µM) | 1 (≈ 2.03 µM) | 0.5 (≈ 1.01 µM)
5 | C=C[C@]1(C)C[C@@H](OC(=O)CSc2nc(OC(=O)c3ccc(F)cc3)cs2)[C@]2(C)[C@H](C)CC[C@]3(CCC(=O)[C@H]32)[C@@H](C)[C@@H]1O | 0.125 (≈ 0.203 µM) | > 32 | > 32 | 0.25 (≈ 0.406 µM) | 0.5 (≈ 0.812 µM) | 0.5 (≈ 0.812 µM)
6 | C=C[C@]1(C)C[C@@H](OC(=O)CSc2nc(OC(=O)CCCCCCC)cs2)[C@]2(C)[C@H](C)CC[C@]3(CCC(=O)[C@H]32)[C@@H](C)[C@@H]1O | 0.125 (≈ 0.202 µM) | > 32 | > 32 | 0.5 (≈ 0.807 µM) | 2 (≈ 3.23 µM) | 2 (≈ 3.23 µM)
7 | C=C[C@]1(C)C[C@@H](OC(=O)CSc2nc(OC(=O)c3cccc(F)c3)cs2)[C@]2(C)[C@H](C)CC[C@]3(CCC(=O)[C@H]32)[C@@H](C)[C@@H]1O | 0.125 (≈ 0.203 µM) | > 32 | > 32 | 0.5 (≈ 0.812 µM) | 0.5 (≈ 0.812 µM) | 2 (≈ 3.25 µM)
8 | C=C[C@]1(C)C[C@@H](OC(=O)CSc2nc(OC(=O)c3cccc(Cl)c3)cs2)[C@]2(C)[C@H](C)CC[C@]3(CCC(=O)[C@H]32)[C@@H](C)[C@@H]1O | 0.063 (≈ 0.0996 µM) | > 32 | > 32 | 0.25 (≈ 0.395 µM) | 1 (≈ 1.58 µM) | 0.25 (≈ 0.395 µM)
9 | C=C[C@]1(C)C[C@@H](OC(=O)CSc2nc(OC(=O)c3ccc(Cl)cc3Cl)cs2)[C@]2(C)[C@H](C)CC[C@]3(CCC(=O)[C@H]32)[C@@H](C)[C@@H]1O | 0.063 (≈ 0.0945 µM) | > 32 | > 32 | 0.5 (≈ 0.75 µM) | 0.5 (≈ 0.75 µM) | 2 (≈ 3 µM)
10 | C=C[C@]1(C)C[C@@H](OC(=O)CSc2nc(OC(=O)c3ccccc3F)cs2)[C@]2(C)[C@H](C)CC[C@]3(CCC(=O)[C@H]32)[C@@H](C)[C@@H]1O | 0.125 (≈ 0.203 µM) | > 32 | > 32 | 0.25 (≈ 0.406 µM) | 0.5 (≈ 0.812 µM) | 0.5 (≈ 0.812 µM)
11 | C=C[C@]1(C)C[C@@H](OC(=O)CSc2nc(OC(=O)C(C)(C)CC)cs2)[C@]2(C)[C@H](C)CC[C@]3(CCC(=O)[C@H]32)[C@@H](C)[C@@H]1O | 0.063 (≈ 0.106 µM) | > 32 | > 32 | 0.125 (≈ 0.211 µM) | 0.5 (≈ 0.845 µM) | 0.25 (≈ 0.422 µM)
12 | C=C[C@]1(C)C[C@@H](OC(=O)CSc2nc(OC(=O)CCC)cs2)[C@]2(C)[C@H](C)CC[C@]3(CCC(=O)[C@H]32)[C@@H](C)[C@@H]1O | 0.125 (≈ 0.222 µM) | > 32 | > 32 | 0.25 (≈ 0.443 µM) | 1 (≈ 1.77 µM) | 1 (≈ 1.77 µM)
13 | C=C[C@]1(C)C[C@@H](OC(=O)CSc2nc(OC(=O)CCCCC)cs2)[C@]2(C)[C@H](C)CC[C@]3(CCC(=O)[C@H]32)[C@@H](C)[C@@H]1O | 0.125 (≈ 0.211 µM) | > 32 | > 32 | 0.5 (≈ 0.845 µM) | 1 (≈ 1.69 µM) | 1 (≈ 1.69 µM)
14 | C=C[C@]1(C)C[C@@H](OC(=O)CSc2nc(OC(=O)c3c(Cl)cc(Cl)cc3Cl)cs2)[C@]2(C)[C@H](C)CC[C@]3(CCC(=O)[C@H]32)[C@@H](C)[C@@H]1O | 0.5 (≈ 0.713 µM) | > 32 | > 32 | 1 (≈ 1.43 µM) | 16 (≈ 22.8 µM) | 16 (≈ 22.8 µM)
15 | C=C[C@]1(C)C[C@@H](OC(=O)CSc2nc(OC(=O)c3ccccc3C)cs2)[C@]2(C)[C@H](C)CC[C@]3(CCC(=O)[C@H]32)[C@@H](C)[C@@H]1O | 0.063 (≈ 0.103 µM) | > 32 | > 32 | 1 (≈ 1.63 µM) | 1 (≈ 1.63 µM) | 2 (≈ 3.27 µM)
16 | C=C[C@]1(C)C[C@@H](OC(=O)CSc2nc(OC(=O)C3CCCC3)cs2)[C@]2(C)[C@H](C)CC[C@]3(CCC(=O)[C@H]32)[C@@H](C)[C@@H]1O | 0.25 (≈ 0.424 µM) | > 32 | > 32 | 0.25 (≈ 0.424 µM) | 1 (≈ 1.7 µM) | 2 (≈ 3.39 µM)
17 | C=C[C@]1(C)C[C@@H](OC(=O)CSc2nc(OC(=O)CC(C)(C)C)cs2)[C@]2(C)[C@H](C)CC[C@]3(CCC(=O)[C@H]32)[C@@H](C)[C@@H]1O | 0.125 (≈ 0.211 µM) | > 32 | > 32 | 0.25 (≈ 0.422 µM) | 0.5 (≈ 0.845 µM) | 0.5 (≈ 0.845 µM)
18 | C=C[C@]1(C)C[C@@H](OC(=O)CSc2nc(OC(=O)c3cccc(OC)c3)cs2)[C@]2(C)[C@H](C)CC[C@]3(CCC(=O)[C@H]32)[C@@H](C)[C@@H]1O | 0.063 (≈ 0.1 µM) | > 32 | > 32 | 0.25 (≈ 0.398 µM) | 1 (≈ 1.59 µM) | 1 (≈ 1.59 µM)
19 | C=C[C@]1(C)C[C@@H](OC(=O)CSc2nc(OC(=O)c3cccc(Br)c3)cs2)[C@]2(C)[C@H](C)CC[C@]3(CCC(=O)[C@H]32)[C@@H](C)[C@@H]1O | 0.063 (≈ 0.0931 µM) | > 32 | > 32 | 0.25 (≈ 0.369 µM) | 0.5 (≈ 0.739 µM) | 2 (≈ 2.96 µM)
20 | C=C[C@]1(C)C[C@@H](OC(=O)CSc2nc(OC(=O)CC(C)C)cs2)[C@]2(C)[C@H](C)CC[C@]3(CCC(=O)[C@H]32)[C@@H](C)[C@@H]1O | 0.125 (≈ 0.216 µM) | > 32 | > 32 | 0.125 (≈ 0.216 µM) | 0.5 (≈ 0.865 µM) | 1 (≈ 1.73 µM)
21 | C=C[C@]1(C)C[C@@H](OC(=O)CSc2nc(OC(=O)C(CC)CCCC)cs2)[C@]2(C)[C@H](C)CC[C@]3(CCC(=O)[C@H]32)[C@@H](C)[C@@H]1O (some centres undefined) | 0.25 (≈ 0.403 µM) | > 32 | > 32 | 0.5 (≈ 0.807 µM) | 0.5 (≈ 0.807 µM) | 2 (≈ 3.23 µM)
22 | C=C[C@]1(C)C[C@@H](OC(=O)CSc2nc(OC(=O)C3CCC3)cs2)[C@]2(C)[C@H](C)CC[C@]3(CCC(=O)[C@H]32)[C@@H](C)[C@@H]1O | 0.063 (≈ 0.109 µM) | > 32 | > 32 | 0.5 (≈ 0.868 µM) | 0.5 (≈ 0.868 µM) | 1 (≈ 1.74 µM)
23 | C=C[C@]1(C)C[C@@H](OC(=O)CSc2nc(OC(=O)c3cccs3)cs2)[C@]2(C)[C@H](C)CC[C@]3(CCC(=O)[C@H]32)[C@@H](C)[C@@H]1O | 0.25 (≈ 0.414 µM) | > 32 | > 32 | 0.25 (≈ 0.414 µM) | 1 (≈ 1.66 µM) | 0.5 (≈ 0.828 µM)
24 | C=C[C@]1(C)C[C@@H](OC(=O)CSc2nc(OC(=O)c3cccc(C)c3)cs2)[C@]2(C)[C@H](C)CC[C@]3(CCC(=O)[C@H]32)[C@@H](C)[C@@H]1O | 0.063 (≈ 0.103 µM) | > 32 | > 32 | 0.5 (≈ 0.817 µM) | 0.5 (≈ 0.817 µM) | 0.5 (≈ 0.817 µM)
